Source: patent publication US20250059205A1, “Heterocyclic Compounds and Methods of Use” (AMGEN INC., priority 2021, published 2025)

Tests used:
[1] = target: GDP-bound KRAS protein (aa 1-169), containing both G12D and C118A amino acid substitutions (Homo sapiens, UniProt P01116, C118A/G12D); experiment: KRAS G12D Coupled Nucleotide Exchange Assay; format: biochemical; details: 2 h compound pre-incubation
Procedure: Following compound pre-incubation, purified SOS protein (aa 564-1049) and GTP (Roche 10106399001) were added to the assay wells and incubated for an additional 30 min. […] The assay plates were then read on a PerkinElmer EnVision Multilabel Reader, using AlphaScreen® technology, and data were analyzed using a 4-parameter logistic model to calculate IC50 values.

[2] = test system: Phosphorylation of ERK1/2 in A-427 cells; experiment: Phospho-ERK1/2 MSD Assay (A-427 cells); format: cell-based; details: Homo sapiens, A-427, 2 h, 2 h treatment, read-out: p-ERK (A427 cells) IC50
Procedure: (§1) A-427 (ATCC® HTB-53™) cells were cultured in RPMI 1640 Medium (ThermoFisher Scientific 11875093) containing 10% fetal bovine serum (ThermoFisher Scientific 16000044) and 1× penicillin-streptomycin-glutamine (ThermoFisher Scientific 10378016). Sixteen hours prior to compound treatment, A-427 cells were seeded in 96-well cell culture plates at a density of 25,000 cells/well and incubated at 37° C., 5% CO2. A compound dose-response titration was diluted in growth media, added to appropriate wells of a cell culture plate, and then incubated at 37° C., 5% CO2 for 2 h. Following compound treatment, cells were washed with ice-cold Dulbecco's phosphate-buffered saline, no Ca^2+ or Mg^2+ (ThermoFisher Scientific 14190144), and then lysed in RIPA buffer (50 mM Tris-HCl pH 7.5, 1% Igepal, 0.5% sodium deoxycholate, 150 mM NaCl, and 0.5% sodium dodecyl sulfate) containing protease inhibitors (Roche 4693132001) and phosphatase inhibitors (Roche 4906837001). Phosphorylation of ERK1/2 in compound-treated lysates was assayed using Phospho-ERK1/2 Whole Cell Lysate kits (Meso Scale Discovery K151DWD) according to the manufacturer's protocol. Assay plates were read on a Meso Scale Discovery Sector Imager 6000, and data were analyzed using a 4-parameter logistic model to calculate IC50 values.

[3] = test system: Phosphorylation of ERK1/2 in AsPC-1 cells; experiment: Phospho-ERK1/2 MSD Assay (AsPC-1 cells); format: cell-based; details: Homo sapiens, ASPC1, 2 h, 2 hours treatment, read-out: p-ERK (AsPC-1 cells) IC50
Procedure: as §1, with “AsPC-1” for “A-427”, “CRL-1682™)” for “HTB-53™)”, “hours.” for “h.”

[4] = target: His-tagged KRAS G12D protein (Homo sapiens, UniProt P01116, G12D); experiment: KRAS G12D TR-FRET Assay; format: binding
Procedure: Compounds of interest were prepared in a dose-response titration in DMSO, and 80 nL were added via Labcyte Echo to each well of a 384-well plate (Perkin Elmer 6008280). […] The plate was incubated for 30 minutes at room temperature. Biotinylated KRPep-2d substrate (Amgen) was diluted to 20 nM in Assay Buffer and 2 μL was added to all wells and incubated for 1 h at room temperature. Detection Reagent (0.4 nM LANCE Eu-W1024 Anti-6xHis (Perkin Elmer AD0401), 5 nM streptavidin-d2 (Cisbio 610SADLA)) was prepared in Assay Buffer, then 4 μL was added to the plate and incubated for 1 h at room temperature. Plates were read using PerkinElmer EnVision (ex: 320 nm, em1: 665 nm, em2: 615 nm) and em1/em2 data was used to generate curve fits using a 4-parameter logistic model to calculate IC50 values.

Sequence of His-tagged KRAS G12D protein (P01116 1-188 isoform P01116-2 G12D): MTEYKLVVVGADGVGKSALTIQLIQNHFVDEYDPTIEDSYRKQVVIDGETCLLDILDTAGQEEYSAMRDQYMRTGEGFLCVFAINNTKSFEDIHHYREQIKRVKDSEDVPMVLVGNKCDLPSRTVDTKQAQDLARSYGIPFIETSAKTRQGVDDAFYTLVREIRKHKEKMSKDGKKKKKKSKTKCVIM
Sequence of GDP-bound KRAS protein (aa 1-169), containing both G12D and C118A amino acid substitutions (P01116 1-169 isoform P01116-2 G12D/C118A): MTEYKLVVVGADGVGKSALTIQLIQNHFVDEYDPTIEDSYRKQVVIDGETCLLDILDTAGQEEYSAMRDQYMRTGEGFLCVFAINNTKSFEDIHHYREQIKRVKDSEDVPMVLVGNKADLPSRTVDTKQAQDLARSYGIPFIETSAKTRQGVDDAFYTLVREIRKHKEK

| Compound | Avg 2 h Coupled Exchange IC50 [1] [nM] | IC50 [2] [nM] | IC50 [3] [nM] | IC50 [4] [nM] |
| --- | --- | --- | --- | --- |
| CCc1c(F)ccc2cc(O)cc(-c3c(F)cc4c(N5C[C@H]6CC[C@@H](C5)N6)nc(OCC56CCCN5CC(F)(F)C6)nc4c3F)c12 (stereo partly drawn) [Example 128, 4-(4-((1R,5S)-3,8-diazabicyclo[3.2.1]octan-3-yl)-2-((2,2-difluorotetrahydro-1H-pyrrolizin-7a(5H)-yl)methoxy)-6,8-difluoroquinazolin-7-yl)-5-ethyl-6-fluoronaphthalen-2-ol] | 4 | 308 | 243 | 3 |
| CN1CCC[C@H]1CCOc1nc(N2[C@@H]3CNC[C@H]2COC3)c2ccc(-c3cc(O)cc4ccccc34)c(F)c2n1 [Example 9, 4-(4-((1R,5S)-3-oxa-7,9-diazabicyclo[3.3. 1]nonan-9-yl)-8-fluoro-2-(2-((S)-1-methylpyrrolidin-2-yl)ethoxy)quinazolin-7-yl)naphthalen-2-ol] | 125 | > 25000 | > 25000 | 456 |
| CCc1c(F)ccc2cccc(-c3c(F)cc4c(N5C[C@H]6CC[C@@H](C5)N6)nc(OC[C@@]56CCCN5C[C@H](F)C6)nc4c3F)c12 [Example 69, 4-((1R,5S)-3,8-diazabicyclo[3.2. 1]octan-3-yl)-7-(8-ethyl-7-fluoronaphthalen-1-yl)-6,8-difluoro-2-(((2R,7aS)-2-fluorotetrahydro-1H-pyrrolizin-7a(5H)-yl)methoxy) quinazoline] | 2 | 1000 | 514 | 4 |
| CCc1c(F)ccc2cccc(-c3ccc4c(N5C[C@H]6CC[C@@H](C5)N6)nc(OC[C@@]56CCCN5C[C@H](F)C6)nc4c3C)c12 [Example 58, 4-((1R,5S)-3,8-diazabicyclo[3.2. 1]octan-3-yl)-7-(8-ethyl-7-fluoronaphthalen-1-yl)-2-(((2R,7aS)-2-fluorotetrahydro-1H-pyrrolizin-7a(5H)-yl)methoxy)-8-methylquinazolin] | 5 | 4190 | 2460 | 6 |
| Oc1cc(-c2c(Cl)cc3c(N4C[C@H]5CC[C@@H](C4)N5)nc(OC[C@@]45CCCN4C[C@H](F)C5)nc3c2F)c2ccccc2c1 [Example 52, 4-(4-((1R,5S)-3,8-diazabicyclo[3.2. 1]octan-3-yl)-6-chloro-8-fluoro-2-(((2R,7aS)-2-fluorotetrahydro-1H-pyrrolizin-7a(5H)-yl)methoxy)quinazolin-7-yl)naphthalen-2-ol] | 3 | 41 | 107 | 3 |
| Fc1c(-c2ccc(Cl)c3ccccc23)c(Cl)cc2c(N3C[C@H]4CC[C@@H](C3)N4)nc(OC[C@@]34CCCN3C[C@H](F)C4)nc12 [Example 79, 4-((1R,5S)-3,8-diazabicyclo[3.2. 1]octan-3-yl)-6-chloro-7-(4-chloronaphthalen-1-yl)-8-fluoro-2-(((2R,7aS)-2-fluorotetrahydro-1H-pyrrolizin-7a(5H)-yl)methoxy) quinazoline] | 26 | > 10000 | 3430 | 26 |
| Oc1cc(-c2c(F)cc3c(N4C[C@H]5CC[C@@H](C4)N5)nc(OC[C@@]45CCCN4C[C@H](F)C5)nc3c2F)c2ccccc2c1 [Example 47, 4-(4-((1R,5S)-3,8-diazabicyclo[3.2. 1]octan-3-yl)-6,8-difluoro-2-(((2R,7aS)-2-fluorotetrahydro-1H-pyrrolizin-7a(5H)-yl)methoxy)quinazolin-7-yl)naphthalen-2-ol] | – | 11 | – | – |
| Oc1cc(-c2ccc3c(N4[C@@H]5CC[C@H]4CNC5)nc(OC[C@@]45CCCN4C[C@H](F)C5)nc3c2)c2ccccc2c1 [Example 11, 4-(4-((1R,5S)-3,8-diazabicyclo[3.2. 1]octan-8-yl)-2-(((2R,7aS)-2-fluorotetrahydro-1H-pyrrolizin-7a(5H)-yl)methoxy)quinazolin-7-yl)naphthalen-2-ol] | 9 | 2510 | 1530 | 21 |
| Cc1c(-c2cc(O)cc3ccccc23)ccc2c(N3CC4CCC(C3)N4)nc(OCC34CCCN3C[C@H](F)C4)nc12 (stereo in doubt) [Example 32, 4-(4-((1R,5S)-3,8-diazabicyclo[3.2. 1]octan-3-yl)-2-(((2R,7aS)-2-fluorotetrahydro-1H-pyrrolizin-7a(5H)-yl)methoxy)-8-methylquinazolin-7-yl)naphthalen-2-ol] | 2 | 341 | 712 | 5 |
| CCc1c(F)ccc2cc(O)cc(-c3c(F)cc4c(N5C[C@H]6CC[C@@H](C5)N6)nc(OCC(O)(CC)CC)nc4c3F)c12 [Example 123, 4-(4-((1R,5S)-3,8-diazabicyclo[3.2.1]octan-3-yl)-2-(2-ethyl-2-hydroxybutoxy)-6,8-difluoroquinazolin-7-yl)-5-ethyl-6-fluoronaphthalen-2-ol] | 12 | 1990 | 2240 | 12 |
| CCc1c(F)ccc2cc(O)cc(-c3c(F)cc4c(N5C[C@H]6C[C@@H](C5)N6)nc(OC[C@@]56CCCN5C[C@H](F)C6)nc4c3F)c12 [Example 121, 4-(4-((1R,5S)-3,6-diazabicyclo[3.1.1]heptan-3-yl)-6,8-difluoro-2-(((2R,7aS)-2-fluorotetrahydro-1H-pyrrolizin-7a(5H)-yl)methoxy)quinazolin-7-yl)-5-ethyl-6-fluoronaphthalen-2-ol] | 8 | 5530 | 2850 | 26 |
| Fc1c(-c2cc(C(F)F)cc3ccccc23)ccc2c(N3C[C@H]4CC[C@@H](C3)N4)nc(OC[C@@]34CCCN3C[C@H](F)C4)nc12 [Example 225, 4-((1R,5S)-3,8-diazabicyclo[3.2.1]octan-3-yl)-7-(3-(difluoromethyl)naphthalen-1-yl)-8-fluoro-2-(((2R,7aS)-2-fluorotetrahydro-1H-pyrrolizin-7a(5H)-yl)methoxy) quinazoline] | 44 | 79 | 256 | 57 |
| Oc1cc(-c2c(F)cc3c(N4[C@@H]5CC[C@H]4CNC5)nc(OC[C@@]45CCCN4C[C@H](F)C5)nc3c2F)c2ccccc2c1 [Example 12, 4-(4-((1R,5S)-3,8-diazabicyclo[3.2. 1]octan-8-yl)-6,8-difluoro-2-(((2R,7aS)-2-fluorotetrahydro-1H-pyrrolizin-7a(5H)-yl)methoxy)quinazolin-7-yl)naphthalen-2-ol] | – | 90 | 293 | – |
| Oc1cc(-c2c(F)cc3c(N4C[C@H]5CC[C@@H](C4)N5)nc(OC[C@]45CCCN4C[C@H](F)C5)nc3c2F)c2ccccc2c1 [Example 43, 4-(4-((1R,5S)-3,8-diazabicyclo[3.2. 1]octan-3-yl)-6,8-difluoro-2-(((2R,7aR)-2-fluorotetrahydro-1H-pyrrolizin-7a(5H)-yl)methoxy)quinazolin-7-yl)naphthalen-2-ol] | – | 16 | 90 | – |
